From article PMC9014410, “Discovery of V-0219: A Small-Molecule Positive Allosteric Modulator of the Glucagon-Like Peptide-1 Receptor toward Oral Treatment for “Diabesity”” (Journal of Medicinal Chemistry, 2022)

How the values were obtained:
[1] = biological target: hGLP-1R (Homo sapiens, UniProt P43220); test: cAMP accumulation in HEK-293 cells expressing hGLP-1R (HEK-GLP-1 cells); assay type: cell-based; conditions: HEK293, read-out: Potentiation of GLP-1 Emax at 10 ?M in a cAMP assay (%); 10 ?M compound (supplementary csv)
Experimental: After this time the culture medium was replaced by 20 μL fresh Opti-MEM containing 500 μM IBMX and 100 μM K579 and incubated with gentle stirring for 10 min at rt. […] Concentration-response curves were fitted to a 4-parameter logistic equation by using GraphPad Prism 2.1 software.

[2] = tested on: INS-1 β-cells; test: Insulin secretion by rat INS-1 / INS-1E insulinoma cells; assay type: cell-based; conditions: INS-1E cells, 0.5 mM glucose, single representative experiment
Experimental: The incubation was done using two types of culture media, defined as low glucose (0.5–3 mM) and high glucose (15 mM). […] Incubation with compounds lasted 30 min, and then the media was collected, centrifuged at 4 °C for 2 min until assayed for insulin using commercial ELISA kit.

[3] = tested on: EndoC-βH1 cells; test: Insulin secretion by human pancreatic EndoC-βH1 cells; assay type: cell-based; conditions: high glucose concentration
Experimental: Both cell lines were cultured in RPMI 1640 medium supplemented with 10% fetal calf serum as described. Cell monolayers were incubated at 37 °C in a 7.5% CO2 atmosphere. For insulin secretion studies, cells were detached, washed once with glucose-free medium and placed in 48 multiwell plates (100,000 cells per well) and kept in glucose-free medium for 1.5 h prior to incubation with drugs. The incubation was done using two types of culture media, defined as low glucose (0.5–3 mM) and high glucose (15 mM). […] Incubation with compounds lasted 30 min, and then the media was collected, centrifuged at 4 °C for 2 min until assayed for insulin using commercial ELISA kit.

hGLP-1R, sequence (P43220 24-463): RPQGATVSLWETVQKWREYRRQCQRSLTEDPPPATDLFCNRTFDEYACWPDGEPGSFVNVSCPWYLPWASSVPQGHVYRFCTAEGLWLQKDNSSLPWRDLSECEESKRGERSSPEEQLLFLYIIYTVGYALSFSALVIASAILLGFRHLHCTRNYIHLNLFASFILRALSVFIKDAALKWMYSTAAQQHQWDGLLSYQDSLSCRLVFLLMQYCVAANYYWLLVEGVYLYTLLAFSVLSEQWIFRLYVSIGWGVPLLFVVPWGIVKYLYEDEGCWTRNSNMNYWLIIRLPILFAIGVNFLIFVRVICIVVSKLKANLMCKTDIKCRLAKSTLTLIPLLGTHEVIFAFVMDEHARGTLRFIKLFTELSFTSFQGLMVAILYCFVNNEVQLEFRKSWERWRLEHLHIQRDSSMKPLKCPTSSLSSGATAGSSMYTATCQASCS

| Emax [1] [%] | SMILES | other results |
| --- | --- | --- |
| < 30 | COc1ccc(-c2noc(CN3CCCC(CN4CCOCC4)C3)n2)cc1 (centres unmarked) [S72] | – |
| < 30 | NC(=O)c1ccc(-c2noc(CN3CCCC(CN4CCOCC4)C3)n2)cc1 (centres unmarked) [S85] | – |
| < 30 | CNc1ccc(-c2noc(CN3CCCC(CN4CCOCC4)C3)n2)cc1 (centres unmarked) [S75] | – |
| < 30 | Fc1cccc(-c2noc(CN3CCCC(CN4CCOCC4)C3)n2)c1 (centres unmarked) [S77] | – |
| < 30 | Cc1ccccc1S(=O)(=O)NC(=O)CC1CCN(Cc2nc(-c3ccc(C(F)(F)F)cc3)no2)CC1 [S60] | – |
| < 30 | O=C(CC1CCN(Cc2nc(-c3ccc(C(F)(F)F)cc3)no2)CC1)NS(=O)(=O)c1ccc(Cl)cc1 [S59] | – |
| < 30 | O=C(NS(=O)(=O)c1ccc(OC(F)(F)F)cc1)C1CCN(Cc2nc(-c3ccc(C(F)(F)F)cc3)no2)CC1 [S50] | – |
| < 30 | COc1ccc(Br)cc1S(=O)(=O)NC(=O)C1CCN(Cc2nc(-c3ccc(C(F)(F)F)cc3)no2)CC1 [S51] | – |
| < 30 | O=C(CC1CCN(Cc2nc(-c3ccc(C(F)(F)F)cc3)no2)CC1)NS(=O)(=O)c1ccc(C(F)(F)F)cc1 [S62] | – |
| < 30 | Cc1ccc(-c2noc(CN3CCCC(CN4CCOCC4)C3)n2)cc1 (centres unmarked) [S69] | – |
| < 30 | COc1ccccc1-c1noc(CN2CCCC(CN3CCOCC3)C2)n1 (centres unmarked) [S70] | – |
| < 30 | COC(=O)c1ccc(-c2noc(CN3CCCC(CN4CCOCC4)C3)n2)cc1 (centres unmarked) [S83] | – |
| < 30 | Fc1ccc(-c2noc(CN3CCCC(CN4CCOCC4)C3)n2)cc1 (centres unmarked) [S78] | – |
| < 30 | Clc1ccc(-c2noc(CN3CCCC(CN4CCOCC4)C3)n2)cc1 (centres unmarked) [S81] | – |
| < 30 | CNc1ccccc1-c1noc(CN2CCCC(CN3CCOCC3)C2)n1 (centres unmarked) [S73] | – |
| < 30 | FC(F)(F)c1cccc(-c2noc(CN3CCCC(CN4CCOCC4)C3)n2)c1 (centres unmarked) [S66] | – |
| < 30 | CNC(=O)c1ccc(-c2noc(CN3CCCC(CN4CCOCC4)C3)n2)cc1 (centres unmarked) [S87] | – |
| < 30 | O=C(NS(=O)(=O)c1ccc(C(F)(F)F)cc1)C1CCN(Cc2nc(-c3ccc(C(F)(F)F)cc3)no2)CC1 [S49] | – |
| < 30 | COc1cccc(-c2noc(CN3CCCC(CN4CCOCC4)C3)n2)c1 (centres unmarked) [S71] | – |
| < 30 | CC(=O)c1cccc(S(=O)(=O)NC(=O)CC2CCN(Cc3nc(-c4ccc(C(F)(F)F)cc4)no3)CC2)c1 [S55] | – |
| < 30 | O=C(CC1CCN(Cc2nc(-c3ccc(C(F)(F)F)cc3)no2)CC1)NS(=O)(=O)c1ccc(OC(F)(F)F)cc1 [S63] | – |

The next lines start with the molecule.

| SMILES | Emax [1] [%] | other results |
| --- | --- | --- |
| O=S(=O)(NCC1CCN(Cc2nc(-c3ccc(C(F)(F)F)cc3)no2)CC1)c1ccc(OC(F)(F)F)cc1 [S36] | < 30 | – |
| O=C(NS(=O)(=O)c1cccc(Cl)c1)C1CCN(Cc2nc(-c3ccc(C(F)(F)F)cc3)no2)CC1 [S45] | < 30 | – |
| O=S(=O)(NC1CCN(Cc2nc(-c3ccc(C(F)(F)F)cc3)no2)CC1)c1ccc(F)cc1 [S14] | < 30 | – |
| CC[C@H](C)[C@H](NC(=O)[C@H](Cc1ccccc1)NC(=O)[C@H](CCC(=O)O)NC(=O)[C@H](CCCCN)NC(=O)[C@H](C)NC(=O)[C@H](C)NC(=O)[C@H](CCC(N)=O)NC(=O)CNC(=O)[C@H](CCC(=O)O)NC(=O)[C@H](CC(C)C)NC(=O)[C@H](Cc1ccc(O)cc1)NC(=O)[C@H](CO)NC(=O)[C@H](CO)NC(=O)[C@@H](NC(=O)[C@H](CC(=O)O)NC(=O)[C@H](CO)NC(=O)[C@@H](NC(=O)[C@H](Cc1ccccc1)NC(=O)[C@@H](NC(=O)CNC(=O)[C@H](CCC(=O)O)NC(=O)[C@H](C)NC(=O)[C@@H](N)Cc1c[nH]cn1)[C@@H](C)O)[C@@H](C)O)C(C)C)C(=O)N[C@@H](C)C(=O)N[C@@H](Cc1c[nH]c2ccccc12)C(=O)N[C@@H](CC(C)C)C(=O)N[C@H](C(=O)N[C@@H](CCCCN)C(=O)NCC(=O)N[C@@H](CCCNC(=N)N)C(N)=O)C(C)C [GLP-1, GLP-1(7-36)-NH2, reference compound] | – | Insulin secreted ([2]; 0.1 nM test substance): 25 ng/mL; Insulin secreted ([2]; 1 nM test substance): 28 ng/mL; Insulin secreted ([2]; 10 nM test substance): 34 ng/mL; Insulin secreted ([2]; 100 nM test substance): 32 ng/mL |
| CS(=O)(=O)NC1CCN(Cc2nc(-c3ccc(C(F)(F)F)cc3)no2)CC1 [S1] | < 30 | – |
| O=C(NS(=O)(=O)c1ccccc1F)C1CCN(Cc2nc(-c3ccc(C(F)(F)F)cc3)no2)CC1 [S41] | < 30 | – |
| O=S(=O)(NC1CCN(Cc2nc(-c3ccc(C(F)(F)F)cc3)no2)CC1)c1ccc(C(F)(F)F)cc1 [S16] | < 30 | – |
| O=S(=O)(Cc1ccccc1)NCC1CCN(Cc2nc(-c3ccc(C(F)(F)F)cc3)no2)CC1 [S22] | < 30 | – |
| O=[N+]([O-])c1ccccc1S(=O)(=O)NC1CCN(Cc2nc(-c3ccc(C(F)(F)F)cc3)no2)CC1 [S5] | < 30 | – |
| O=C(NS(=O)(=O)c1cccc(F)c1)C1CCN(Cc2nc(-c3ccc(C(F)(F)F)cc3)no2)CC1 [S42] | < 30 | – |
| Cc1ccccc1S(=O)(=O)NC(=O)C1CCN(Cc2nc(-c3ccc(C(F)(F)F)cc3)no2)CC1 [S47] | < 30 | – |
| CS(=O)(=O)NCC1CCN(Cc2nc(-c3ccc(C(F)(F)F)cc3)no2)CC1 [S20] | < 30 | – |
| O=S(=O)(NCC1CCN(Cc2nc(-c3ccc(C(F)(F)F)cc3)no2)CC1)c1ccccc1Cl [S28] | < 30 | – |
| O=S(=O)(NC1CCN(Cc2nc(-c3ccc(C(F)(F)F)cc3)no2)CC1)c1cccc(Cl)c1 [S10] | < 30 | – |
| CC(=O)c1cccc(S(=O)(=O)NC2CCN(Cc3nc(-c4ccc(C(F)(F)F)cc4)no3)CC2)c1 [S4] | < 30 | – |
| CC(=O)c1cccc(S(=O)(=O)NCC2CCN(Cc3nc(-c4ccc(C(F)(F)F)cc4)no3)CC2)c1 [S23] | < 30 | – |
| O=S(=O)(NCC1CCN(Cc2nc(-c3ccc(C(F)(F)F)cc3)no2)CC1)c1cccc(Cl)c1 [S29] | < 30 | – |
| O=S(=O)(NC1CCN(Cc2nc(-c3ccc(C(F)(F)F)cc3)no2)CC1)c1ccc(OC(F)(F)F)cc1 [S17] | < 30 | – |

| SMILES | Emax [1] [%] | other results |
| --- | --- | --- |
| Cc1ccccc1S(=O)(=O)NCC1CCN(Cc2nc(-c3ccc(C(F)(F)F)cc3)no2)CC1 [S33] | < 30 | – |
| N#Cc1ccccc1S(=O)(=O)NC1CCN(Cc2nc(-c3ccc(C(F)(F)F)cc3)no2)CC1 [S7] | < 30 | – |
| N#Cc1ccccc1S(=O)(=O)NCC1CCN(Cc2nc(-c3ccc(C(F)(F)F)cc3)no2)CC1 [S25] | < 30 | – |
| CCCS(=O)(=O)NC(=O)C1CCN(Cc2nc(-c3ccc(C(F)(F)F)cc3)no2)CC1 [S38] | < 30 | – |
| CC(=O)c1cccc(S(=O)(=O)NC(=O)C2CCN(Cc3nc(-c4ccc(C(F)(F)F)cc4)no3)CC2)c1 [S40] | < 30 | – |
| Cc1ccc([N+](=O)[O-])cc1S(=O)(=O)NC1CCN(Cc2nc(-c3ccc(C(F)(F)F)cc3)no2)CC1 [S19] | < 30 | – |
| Cc1ccccc1S(=O)(=O)NC1CCN(Cc2nc(-c3ccc(C(F)(F)F)cc3)no2)CC1 [S15] | < 30 | – |
| O=C(NS(=O)(=O)c1ccc(Cl)cc1)C1CCN(Cc2nc(-c3ccc(C(F)(F)F)cc3)no2)CC1 [S46] | < 30 | – |
| O=S(=O)(NC1CCN(Cc2nc(-c3ccc(C(F)(F)F)cc3)no2)CC1)c1cccc(F)c1 [S13] | < 30 | – |
| O=S(=O)(NCC1CCN(Cc2nc(-c3ccc(C(F)(F)F)cc3)no2)CC1)c1ccc(C(F)(F)F)cc1 [S35] | < 30 | – |
| FC(F)(F)c1ccc(-c2noc(CN3CCC[C@H](CN4CCOCC4)C3)n2)cc1 [(R)-9, (−)-4-{[(3R)-1-({3-[4-(Trifluoromethyl)phenyl]-1,2,4-oxadiazol-5-yl}methyl)piperidin-3-yl]methyl}morpholine] | – | Insulin secreted ([2]; 0.1 nM test substance): 19 ng/mL; Insulin secreted ([2]; 1 nM test substance): 31 ng/mL; Insulin secreted ([2]; 10 nM test substance): 39 ng/mL; potentiation of insulin secretion stimulated by GLP-1 (in words) [3]: similarly potentiate insulin secretion stimulated by GLP-1 |
| CCS(=O)(=O)NC(=O)C1CCN(Cc2nc(-c3ccc(C(F)(F)F)cc3)no2)CC1 [S37] | < 30 | – |
| Cl.NC(=O)C1CCN(Cc2nc(-c3ccc(C(F)(F)F)cc3)no2)CC1 [compound 7, 1-({3-[4-(Trifluoromethyl)phenyl]-1,2,4-oxadiazol-5-yl}methyl)piperidine-4-carboxamide] | – | melting point: 187 to 188 °C |
| O=S(=O)(NCC1CCN(Cc2nc(-c3ccc(C(F)(F)F)cc3)no2)CC1)c1cccc(F)c1 [S31] | < 30 | – |
| O=C(NS(=O)(=O)Cc1ccccc1)C1CCN(Cc2nc(-c3ccc(C(F)(F)F)cc3)no2)CC1 [S39] | < 30 | – |
| N#Cc1cccc(S(=O)(=O)NC2CCN(Cc3nc(-c4ccc(C(F)(F)F)cc4)no3)CC2)c1 [S8] | < 30 | – |
| O=S(=O)(NC1CCN(Cc2nc(-c3ccc(C(F)(F)F)cc3)no2)CC1)c1ccccc1F [S12] | < 30 | – |
